Test [1] addresses T1, MkTPS1 (Murraya koenigii, UniProt A0A1U9M7Y9).
T1 construct: plastid transit peptide truncated at Met-40; full length 602 aa; E. coli Rosetta-2; Ni-NTA purified
Description: terpene synthase assay, SPME GC-MS of products. The format is biochemical. As to conditions: 70 μM GPP; 1 mM MgCl2, 5 mM DTT, 30 mM HEPES pH 7.5, 30 °C 2 h; product (−)-sabinene.

For test [2], the target named is T2, MkTPS2 (Murraya koenigii, UniProt A0A1U9M7X9).
T2 construct: full-length ORF, 560 aa; E. coli Rosetta-2; Ni-NTA purified
T2 sequence (A0A1U9M7X9 entry or part of it): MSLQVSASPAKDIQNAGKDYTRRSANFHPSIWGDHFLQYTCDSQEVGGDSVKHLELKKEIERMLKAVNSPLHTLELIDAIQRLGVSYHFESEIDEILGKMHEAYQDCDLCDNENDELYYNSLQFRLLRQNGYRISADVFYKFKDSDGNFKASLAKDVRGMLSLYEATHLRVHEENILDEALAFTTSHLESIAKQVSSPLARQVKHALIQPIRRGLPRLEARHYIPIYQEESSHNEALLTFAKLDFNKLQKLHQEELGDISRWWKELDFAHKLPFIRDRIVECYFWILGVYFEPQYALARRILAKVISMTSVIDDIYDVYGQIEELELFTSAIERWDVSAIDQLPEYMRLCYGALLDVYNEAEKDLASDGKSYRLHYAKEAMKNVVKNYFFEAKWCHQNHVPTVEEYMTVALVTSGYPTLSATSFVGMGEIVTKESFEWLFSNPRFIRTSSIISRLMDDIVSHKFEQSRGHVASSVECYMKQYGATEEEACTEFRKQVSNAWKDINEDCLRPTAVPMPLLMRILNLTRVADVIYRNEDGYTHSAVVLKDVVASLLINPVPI
Description: terpene synthase assay, SPME GC-MS of products. The class given is biochemical. The following applies: 70 μM FPP; 1 mM MgCl2, 5 mM DTT, 30 mM HEPES pH 7.5, 30 °C 2 h; product (E,E)-α-farnesene.

The record followed here is article PMC5341033, “Transcriptomic insight into terpenoid and carbazole alkaloid biosynthesis, and functional characterization of two terpene synthases in curry tree (Murraya koenigii)” (Scientific Reports, 2017).

T1 sequence (A0A1U9M7Y9 entry or part of it): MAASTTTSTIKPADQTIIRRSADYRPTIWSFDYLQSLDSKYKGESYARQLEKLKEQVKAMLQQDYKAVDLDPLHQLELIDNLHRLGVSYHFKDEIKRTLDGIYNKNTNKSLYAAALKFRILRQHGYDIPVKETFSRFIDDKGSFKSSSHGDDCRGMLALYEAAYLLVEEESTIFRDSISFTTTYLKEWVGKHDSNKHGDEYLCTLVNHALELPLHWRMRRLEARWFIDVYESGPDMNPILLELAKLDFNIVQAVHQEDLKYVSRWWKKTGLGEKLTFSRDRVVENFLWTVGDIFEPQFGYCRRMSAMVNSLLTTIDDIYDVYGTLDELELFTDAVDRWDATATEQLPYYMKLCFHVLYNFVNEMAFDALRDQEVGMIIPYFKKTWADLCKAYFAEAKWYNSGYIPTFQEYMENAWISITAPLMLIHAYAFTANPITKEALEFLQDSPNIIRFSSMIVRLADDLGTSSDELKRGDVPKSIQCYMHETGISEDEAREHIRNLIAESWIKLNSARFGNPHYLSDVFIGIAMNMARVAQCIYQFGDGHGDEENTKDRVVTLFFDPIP

As for `CC(C)=CCC/C(C)=C/COP(=O)(O)OP(=O)(O)O` [geranyl diphosphate], the “terpene synthase assay, SPME GC-MS of products” value in test [1] is recorded as “MkTPS1 showed the formation of predominantly sabinene utilizing GPP as substrate”.

Take `CC(C)=CCC/C(C)=C/CC/C(C)=C/COP(=O)(O)OP(=O)(O)O` [farnesyl diphosphate]: the “terpene synthase assay, SPME GC-MS of products” value in test [2] is given as “MkTPS2, the product analysis showed the formation of α-farnesene with FPP as substrate”.
